# Laboratory results taken from patent publication US5004746A, “Anti-retroviral castanospermine esters” (Merrell Dow Pharmaceuticals Inc., priority 1987, dated 1991).
# Read-outs that look alike come from different tables or passages of the source.
# Assays:
# [1] = tested on: Moloney murine leukemia virus (MoLV); test: in vitro XC plaque assay (inhibition of growth and replication of murine leukemia virus); format: cell-based; settings: SC1, MoLV on mouse SC-1 cells, rat XC cells, compound added 2 hours prior to virus, read-out: IC50 (inhibitory concentration)
# Method: This assay was performed according to the method of Rowe et al. (Virology, 1970, 42, 1136-39) as previously described by L. Hsu, et al. (J. Viroloqical Methods, 1980, 1, 167-77) and T. L. Bowlin and M. R. Proffitt (J. Interferon Res., 1983, 3(1), 19-31). Mouse SC-1 cells (fibroblast) (10^5) were seeded into each well of 6-well cluster plates (Costar #3506) in 4 ml Minimum Essential Medium (MEM) with 10% Fetal Calf Serum (FCS). Following an 18 hour incubation period (37° C.), Moloney murine leukemia virus (MoLV) was applied at a predetermined titer to give optimal (i.e. countable) numbers of virus plaques. Compounds were added 2 hours prior to addition of the virus. Three days later the culture medium was removed, the SC-1 cell monolayers were exposed to UV irradiation (1800 ergs), and rat XC cells […] were seeded into each well in 4 ml MEM. Following an additional 3 day incubation (37° C.), these cells were fixed with ethyl alcohol (95%) and stained with 0.3% crystal violet. Plaques were then counted under low magnification.
# [2] = tested on: viral protein glycosylation; settings: cited from earlier work
# [3] = tested on: HIV glycoproteins; settings: Blough et al. 1986; cited from earlier work
# [4] = tested on: HIV; settings: Blough et al. 1986; cited from earlier work
# [5] = tested on: HIV-infected cells; settings: Blough et al. 1986; cited from earlier work
# [6] = tested on: influenza infected cells; settings: cited from earlier work
Structure (SMILES),IC50 [1] [µg/mL],also measured
"COc1ccc(C(=O)O[C@H]2CN3CC[C@H](O)[C@@H]3[C@@H](O)[C@@H]2O)cc1 [R = p-CH3 O-Bz, R1 = H, R2 = H, [1S-(1α,6β,7α,8β,8aβ)]-octahydro-1,6,7,8-indolizinetetrol 6-(4-methoxybenzoate)]",10,
"O=C(O[C@H]1[C@H](O)[C@H]2[C@@H](O)CCN2C[C@@H]1OC(=O)c1ccc(F)cc1)c1ccc(F)cc1 [R = p-F-Bz, R1 = p-F-Bz, R2 = H, [1S-(1α,6β,7α,8β,8aβ)]-octahydro-1,6,7,8-indolizinetetrol 6,7-bis(4-fluorobenzoate)]",10,
"O=C(O[C@H]1CN2CC[C@H](O)[C@@H]2[C@@H](O)[C@@H]1O)c1ccc(F)cc1 [R = p-F-Bz, R1 = H, R2 = H, [1S-(1α,6β,7α,8β,8aβ)]-octahydro-1,6,7,8-indolizinetetrol 6-(4-fluorobenzoate)]",10,
"CC(=O)O[C@H]1CN2CC[C@H](O)[C@@H]2[C@@H](O)[C@@H]1O [R = Ac, R1 = H, R2 = H, [1S-(1α,6β,7α,8β,8aβ)]-octahydro-1,6,7,8-indolizinetetrol 6-acetate]",10,
"CCCC(=O)O[C@H]1[C@H](O)[C@@H](OC(=O)CCC)CN2CC[C@H](O)[C@H]12 [R = Butanoyl, R1 = H, R2 = Butanoyl, [1S-(1α,6β,7α,8β,8aβ)]-octahydro-1,6,7,8-indolizinetetrol 6,8-dibutanoate]",0.5,
OC[C@H]1OC(O)[C@H](F)[C@@H](O)[C@@H]1O (some centres unmarked) [2-deoxy-2-fluoroglucose],,inhibition of viral protein glycosylation [2]: inhibit viral protein glycosylation
CCC(O)[C@H](N)C(=O)O (stereo partly drawn) [β-hydroxy-norvaline],,inhibition of expression of HIV glycoproteins [3]: inhibit expression of HIV glycoproteins; block of formation of syncytia [4]: block the formation of syncytia; viral multiplication of HIV-infected cells [5]: stopped
OC[C@H]1OC(O)[C@@H](F)[C@@H](O)[C@@H]1O (stereo partly drawn) [2-deoxy-2-fluoro-D-mannose],,inhibition of viral protein glycosylation [2]: preventing the glycosylation of viral membrane protein; antiviral activity against influenza infected cells [6]: exhibit antiviral activity against influenza infected cells
O=CC[C@@H](O)[C@H](O)[C@H](O)CO [2-deoxy-D-glucose],,inhibition of expression of HIV glycoproteins [3]: inhibit expression of HIV glycoproteins; block of formation of syncytia [4]: block the formation of syncytia; viral multiplication of HIV-infected cells [5]: stopped; inhibition of viral protein glycosylation ([2]; McDowell et al. 1985): inhibit viral protein glycosylation
"Cc1ccc(C(=O)O[C@H]2CN3CC[C@H](O)[C@@H]3[C@@H](O)[C@@H]2O)cc1 [R = p-CH3 -Bz, R1 = H, R2 = H, [1S-(1α,6β,7α,8β,8aβ)]-octahydro-1,6,7,8-indolizinetetrol 6-(4-methylbenzoate)]",1,
"CCCC(=O)O[C@H]1CN2CC[C@H](O)[C@@H]2[C@@H](O)[C@@H]1O [R = Butanoyl, R1 = H, R2 = H, [1S(1α,6β,7α,8β,8aβ)]-octahydro-1,6,7,8indolizinetrol 6-butanoate]",0.1,
"O=C(O[C@H]1CN2CC[C@H](O)[C@@H]2[C@@H](O)[C@@H]1O)c1ccccc1 [R = Bz, R1 = H, R2 = H, [1S-(1α,6β,7α,8β,8aβ)]octahydro-1,6,7,8-indolizinetetrol 6-benzoate]",0.1,
"O=C(O[C@H]1CN2CC[C@H](O)[C@@H]2[C@@H](O)[C@@H]1O)c1ccco1 [R = 2-Furanoyl, R1 = H, R2 = H, 6-(2-Furancarboxylate)]",1,
"O=C(O[C@H]1[C@H](O)[C@H]2[C@@H](O)CCN2C[C@@H]1OC(=O)c1ccccc1)c1ccccc1 [R = Bz, R1 = Bz, R2 = H, [1S-(1α,6β,7α,8β,8aβ)]-octahydro-1,6,7,8-indolizinetetrol 6,7-dibenzoate]",10,
"O=C(O[C@H]1[C@H](O)[C@H]2[C@@H](O)CCN2C[C@@H]1O)c1ccccc1 [R = H, R1 = Bz, R2 = H, [1S-(1α,6β,7α,8β,8aβ)]-octahydro 1,6,7,8-indolizinetetrol 7-benzoate]",1,
"O=C(O[C@H]1[C@H](O)[C@H]2[C@@H](O)CCN2C[C@@H]1O)c1ccc(Cl)cc1Cl [R = H, R1 = 2,4-Cl2 -Bz, R2 = H, [1S-(1α,6β,7α,8β,8aβ)]-octahydro-1,6,7,8-indolizinetetrol 7-(2,4-dichlorobenzoate)]",1,
"Cc1ccc(C(=O)O[C@H]2[C@H](O)[C@H]3[C@@H](O)CCN3C[C@@H]2O)cc1 [R = H, R1 = p-CH3 Bz, R2 = H, [1S-(1α,6β,7α,8β,8aβ)]-octahydro-1,6,7,8-indolizinetetrol 7-(4-methylbenzoate)]",1,
